The source of these data is patent US20250161262A1, “Pharmaceutical Compositions and Methods for Treating Covid” (priority 2022, published 2025).

Converted amounts (≈) assume the structure as drawn. A value given as a limit tells only on which side of the number the result lay.

Data set [1] deals with MERS coronavirus. The following applies: MERS coronavirus patients; cited from earlier work.
The subject of data set [2] is avian-origin influenza A (H7N9). The following applies: To et al. (2016); cited from earlier work.
In data set [3] the test system is pandemic flu H/415, A/Hong Kong/415742/2009, A(HINI)pdm09. The conditions noted are these: To et al. (2016); cited from earlier work.
Data set [4] concerns Influenza A HNI. Briefly: antiviral EC50 against Influenza A. The conditions noted are these: Influenza A virus, read-out: ECso. The class given is cell-based.
The subject of data set [5] is RSV. Briefly: antiviral EC50 against RSV. The following applies: human respiratory syncytial virus, read-out: ECso. The class given is cell-based. The source says: (§1) It is important to understand that mycophenolic acid's anti-viral effect is likely to require a small fraction (about 1-2% or less) of the clinical dose which is approved and commonly used for prevention of transplant rejection. For instance, Chan et al., 2013, p. […] For instance, in one of the Norovirus tests we document here, ECso of 0.151 mcg/mL was reported. Even less mycophenolic acid would be needed to treat viruses such as Influenza A HNI and RSV in which we report ECso <0.10 mcg/ml. Dramatically lower doses may suffice for mycophenolic acid. Therefore, it is not only possible to achieve adequate body levels of mycophenolic acid to treat these viruses clinically, but also a small fraction of the current clinical dose may be more than adequate. To et al, 2016 also presented data on page 1812 supporting these conclusions.

Data set [6] has as its system virus. The conditions noted are these: cited from earlier work.
For data set [7], the system named is Influenza A(H1N1) strain A/WSN/1933. The conditions noted are these: Chan et al. (2013); cited from earlier work.
The test system of data set [8] is seasonal influenza A(H3N2) virus. The following applies: To et al. (2016); cited from earlier work.
In data set [9] the test system is Norovirus. Briefly: Norovirus tests. The class given is cell-based. The conditions noted are these: one of the Norovirus tests; read-out: ECso.
Text: as §1

Regarding `COc1c(C)c2c(c(O)c1C/C=C(\C)CCC(=O)OCCN1CCOCC1)C(=O)OC2` [mycophenolate mofetil, 2-morpholinoethyl ester of mycophenolic acid], in data set [1], the mortality result is “no mortality”.
On to `COc1c(C)c2c(c(O)c1C/C=C(\C)CCC(=O)O)C(=O)OC2` [mycophenolic acid, 6-(4-hydroxy-6-methoxy-7-methyl-3-oxo-1,3-dihydroisobenzofuran-5-yl)-4-methyl-hex-4-enoic acid], for which the effectiveness against virus entry in data set [2] was “effective”; in data set [3], “effective”; in data set [7], “effectiveness”; in [8], “effective”. Also, the figures for the EC50 in data set [4], in [5] and in data set [9] were under 0.1 µg/mL, under 0.1 µg/mL and 0.151 µg/mL (≈ 0.471 µM), respectively. In [6] (Chan et al., 2013, p. 612), the EC so is 0.17 µg/mL. Moreover, the “local concentrations at usual clinical doses, greater than needed” value in [6] (usual clinical doses of mycophenolic acid, Chan et al., 2013) was 60-300 ×.
